# Patent US9113629B2, “4-amino-6-(4-substituted-phenyl)-picolinates and 6-amino-2-(4-substituted-phenyl)-pyrimidine-4-carboxylates and their use as herbicides” (DOW AGROSCIENCES LLC, priority 2013, dated 2015)
# Read-outs that look alike come from different tables or passages of the source.
# What was measured:
# [1] = tested on: VIOSS: wild pansy (Viola tricolor), field violet (Viola arvensis); assay: Post-emergent Test III, herbicidal activity in wheat and barley; assay type: in vivo; settings: for GR50 VIOSS: dose for 50 percent growth reduction; for GR50 VIOSS / GR80 VIOSS: probit analysis; for GR80 VIOSS: dose for 80 percent growth reduction; for pest or weed control at 35 g/ha / pest or weed control at 70 g/ha / pest or weed control at 140 g/ha: Viola tricolor, post-emergence, 504 h; for pest or weed control at 35 g/ha: 35 g ai/ha; for pest or weed control at 70 g/ha: 70 g ai/ha; for pest or weed control at 140 g/ha: 140 g ai/ha
# Procedure, shortened: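 Plants at the second to third true-leaf stage, grown in a greenhouse at about 18/17 °C with a 14 h photoperiod, were sprayed post-emergence at 187 L/ha with the high rate and ½× to 1/16× serial dilutions in an acetone/DMSO/crop-oil/surfactant carrier. Injury was rated visually at 21 d on a 0–100% scale, and GR20–GR90 were derived by probit analysis.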
# [2] = tested on: APESV; assay: Pre-emergent Test III, preemergent activity in wheat and barley; assay type: in vivo, Apera spica-venti
# Description: (§1) Pre-emergent Test III. Seeds of test species were planted into square plastic pots (10 cm wide) containing sandy loam soil. After planting, all pots were sub-irrigated 16 h prior to compound application. A weighed amount, determined by the highest rate to be tested, of each test compound was placed in a 25 mL glass vial and was dissolved in 4 mL of a 97:3 v/v mixture of acetone and DMSO to obtain concentrated stock solutions. […] The concentrated stock solutions obtained were diluted with 20 mL of an aqueous mixture containing water and 0.02% w/v (weight/volume) of Triton X-155 to obtain spray solutions containing the highest application rates. Additional application rates were obtained by serial dilution of 12 mL of the high rate solution into a solution containing 2 mL of 97:3 v/v mixture of acetone and DMSO and 10 mL of an aqueous mixture containing water and 0.02% w/v (weight/volume) of Triton X-155 to obtain 1⁄2×, 1⁄4×, 1⁄8× and 1/16× rates of the high rate. Compound requirements are based upon a 12 mL application volume at a rate of 187 liters per hectare (L/ha). Formulated compounds were applied to the soil surface with an overhead Mandel track sprayer equipped with […] nozzles calibrated to deliver 187 L/ha over an application area of 0.503 square meters. Control pots were sprayed in the same manner with the solvent blank. The treated pots and control pots were placed in a greenhouse as described above and watered through surface irrigation. After 21 d, the condition of the test pots as compared with that of the untreated pots was determined visually and scored on a scale of 0 to 100 percent where 0 corresponds to no herbicidal effect and 100 corresponds to plant death or lack of emergence from the soil. By applying the well-accepted probit analysis as described by J. Berkson in Journal of the American Statistical Society, 48, 565 (1953) and by D. Finney in “Probit Analysis” Cambridge University Press (1952), the above data can be used to calculate GR20, GR50, GR80 and GR90 values, which are defined as growth reduction factors that correspond to the effective dose of herbicide required to kill or control 20 percent, 50 percent, 80 percent or 90 percent, respectively, of a target plant.
# [3] = tested on: LAMSS; assay: as above; assay type: in vivo
# Description: as §1
# [4] = tested on: LOLSS; assay: as above; assay type: in vivo, Lolium multiflorum, Lolium rigidum
# Description: as §1
# [5] = tested on: SETVI; assay: as above; assay type: in vivo, Setaria viridis
# Description: as §1
# [6] = tested on: HORSS; assay: as above; assay type: in vivo, Hordeum vulgare
# Description: as §1
# [7] = tested on: TRZSS; assay: as above; assay type: in vivo, Triticum aestivum
# Description: as §1
# [8] = Table 8, post-emergent, 21 d, read-out: Visual Growth Reduction (%) 21 Days After Application VIOSS
# [9] = 21 days after application, read-out: Visual Gorowth Reduction (%) 21 days After Application VIOSS
# [10] = 21 days after application, dose to kill or control 50%, probit analysis
# [11] = 21 days after application, dose to kill or control 80%, probit analysis
# [12] = 21 days after application, dose to kill or control 20%, probit analysis
smiles,measurement,setting,value
"Nc1c(Cl)c(C(=O)O)nc(-c2ccc(I)c(F)c2)c1Cl [Compound 145, 4-Amino-3,5-dichloro-6-(3-fluoro-4-iodophenyl)picolinic acid]",GR50 VIOSS,"[1]; Table 8, 21 d",>140 g ai/ha
same,GR80 VIOSS,"[1]; Table 8, 21 d",>140 g ai/ha
same,pest or weed control at 35 g/ha,[1]; [8],0 to 29%
same,pest or weed control at 70 g/ha,[1]; [8],0 to 29%
same,pest or weed control at 140 g/ha,[1]; [8],30 to 44%
C=Cc1c(C(=O)O)nc(-c2ccc(C(F)(F)F)c(F)c2)c(F)c1N [Compound 86],pest or weed control at 35 g/ha,[1]; [9],60 to 74%
same,pest or weed control at 70 g/ha,[1]; [9],60 to 74%
same,GR50 VIOSS,[1]; 21 days after application,21 g ai/ha
same,GR80 VIOSS,[1]; 21 days after application,77 g ai/ha
"COC(=O)c1nc(-c2ccc(I)c(F)c2)c(C)c(N)c1Cl [Compound 79, Methyl 4-amino-3-chloro-6-(3-fluoro-4-iodophenyl)-5-methylpicolinate]",GR50 VIOSS,"[1]; Table 8, 21 d",>140 g ai/ha
same,GR80 VIOSS,"[1]; Table 8, 21 d",>140 g ai/ha
same,pest or weed control at 35 g/ha,[1]; [8],0 to 29%
same,pest or weed control at 70 g/ha,[1]; [8],0 to 29%
"COC(=O)c1nc(-c2ccc(C#N)c(F)c2)c(F)c(N)c1Cl [Compound 135, methyl 4-amino-3-chloro-6-(4-cyano-3-fluorophenyl)-5-fluoropicolinate]",GR50 VIOSS,"[1]; Table 8, 21 d",23 g ai/ha
same,GR80 VIOSS,"[1]; Table 8, 21 d",>140 g ai/ha
same,pest or weed control at 35 g/ha,[1]; [8],60 to 74%
same,pest or weed control at 70 g/ha,[1]; [8],60 to 74%
same,pest or weed control at 140 g/ha,[1]; [8],75 to 84%
Nc1c(F)c(-c2cc(F)c(I)cc2F)nc(C(=O)O)c1Cl [Compound 69],pest or weed control at 35 g/ha,[1]; [9],85 to 94%
same,pest or weed control at 70 g/ha,[1]; [9],95 to 100%
same,GR50 VIOSS,[1]; 21 days after application,3 g ai/ha
same,GR80 VIOSS,[1]; 21 days after application,8 g ai/ha
"COC(=O)c1nc(-c2ccc(I)c(F)c2)nc(N)c1OC [Compound 27, Methyl 6-amino-2-(3-fluoro-4-iodophenyl)-5-methoxypyrimidine-4-carboxylate]",GR50 VIOSS,"[1]; Table 8, 21 d",8 g ai/ha
same,GR80 VIOSS,"[1]; Table 8, 21 d",27 g ai/ha
same,pest or weed control at 35 g/ha,[1]; [8],75 to 84%
same,pest or weed control at 70 g/ha,[1]; [8],95 to 100%
C=Cc1c(C(=O)O)nc(-c2ccc(Cl)c(F)c2)c(F)c1N [Compound 214],"Visual Growth Reduction (%) 21 Days After Application, APESV",[2]; 35 g ai/ha,C (75-84)
same,"Visual Growth Reduction (%) 21 Days After Application, APESV",[2]; 70 g ai/ha,A (95-100)
same,GR50 APESV,[2]; [10],13 g ai/ha
same,GR80 APESV,[2]; [11],28 g ai/ha
same,"Visual Growth Reduction (%) 21 Days After Application, LAMSS",[3]; 35 g ai/ha,A (95-100)
same,"Visual Growth Reduction (%) 21 Days After Application, LAMSS",[3]; 70 g ai/ha,A (95-100)
same,GR50 LAMSS,[3]; [10],1 g ai/ha
same,GR80 LAMSS,[3]; [11],2 g ai/ha
same,"Visual Growth Reduction (%) 21 Days After Application, LOLSS",[4]; 35 g ai/ha,G (0-29)
same,"Visual Growth Reduction (%) 21 Days After Application, LOLSS",[4]; 70 g ai/ha,E (45-59)
same,GR50 LOLSS,[4]; [10],>70 g ai/ha
same,GR80 LOLSS,[4]; [11],>70 g ai/ha
same,"Visual Growth Reduction (%) 21 Days After Application, SETVI",[5]; 35 g ai/ha,G (0-29)
same,"Visual Growth Reduction (%) 21 Days After Application, SETVI",[5]; 70 g ai/ha,G (0-29)
same,GR50 SETVI,[5]; [10],>70 g ai/ha
same,GR80 SETVI,[5]; [11],>70 g ai/ha
same,"Visual Growth Reduction (%) 21 Days After Application, HORSS",[6]; 35 g ai/ha,G (0-29)
same,"Visual Growth Reduction (%) 21 Days After Application, HORSS",[6]; 70 g ai/ha,G (0-29)
same,GR20 HORSS,[6]; [12],93 g ai/ha
same,"Visual Growth Reduction (%) 21 Days After Application, TRZSS",[7]; 35 g ai/ha,G (0-29)
same,"Visual Growth Reduction (%) 21 Days After Application, TRZSS",[7]; 70 g ai/ha,F (30-44)
same,GR20 TRZSS,[7]; [12],28 g ai/ha
